Reference: patent publication US20240182445A1 (ONO PHARMACEUTICAL CO., LTD., priority 2019, published 2024)

What was measured:
[1] = Rat hepatic microsomal intrinsic clearance; type: in vitro ADME; conditions: rat hepatic microsomes
Method: (§1) These assays were performed according to known methods as generally described in the following references: Conde-Ceide et al. ACS Med. Chem. Lett. 2015, 6, 716-720; Morris et al. J. Med. Chem. 2014, 57, 10192-10197; and Bubser et al. ACS Chem. Neurosci. 2014, 5, 920-942. Abbreviations which have been used in the descriptions of the following tables are; PPB is plasma protein binding; BHB is brain homogenate binding; and CLint is intrinsic clearance in hepatic microsomes.

[2] = Mouse brain homogenate binding (BHB); type: in vitro ADME
Method: as §1

CYP2D6 = CYP2D6 (Homo sapiens, UniProt P10635); test: P450 inhibition 2D6; type: in vitro ADME
Chain of CYP2D6 (P10635 whole entry): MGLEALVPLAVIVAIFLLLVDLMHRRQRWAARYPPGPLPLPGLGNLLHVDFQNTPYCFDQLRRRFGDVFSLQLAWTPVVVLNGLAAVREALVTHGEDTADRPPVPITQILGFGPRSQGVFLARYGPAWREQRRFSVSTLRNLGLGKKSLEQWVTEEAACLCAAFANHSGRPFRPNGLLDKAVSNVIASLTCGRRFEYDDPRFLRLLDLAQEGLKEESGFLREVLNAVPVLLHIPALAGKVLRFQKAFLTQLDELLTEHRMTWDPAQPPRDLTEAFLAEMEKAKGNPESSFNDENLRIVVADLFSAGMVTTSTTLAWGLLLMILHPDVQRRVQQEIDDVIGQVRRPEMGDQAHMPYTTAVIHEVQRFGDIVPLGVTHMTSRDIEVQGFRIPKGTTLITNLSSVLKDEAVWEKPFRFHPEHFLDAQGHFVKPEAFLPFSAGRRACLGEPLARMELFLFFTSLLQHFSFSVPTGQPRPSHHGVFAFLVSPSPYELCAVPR
Method: as §1

[3] = Mouse hepatic microsomal intrinsic clearance; type: in vitro ADME; conditions: mouse hepatic microsomes
Method: as §1

CYP3A4 = CYP3A4 (Homo sapiens, UniProt P08684); test: P450 inhibition 3A4; type: in vitro ADME
Chain of CYP3A4 (P08684 whole entry): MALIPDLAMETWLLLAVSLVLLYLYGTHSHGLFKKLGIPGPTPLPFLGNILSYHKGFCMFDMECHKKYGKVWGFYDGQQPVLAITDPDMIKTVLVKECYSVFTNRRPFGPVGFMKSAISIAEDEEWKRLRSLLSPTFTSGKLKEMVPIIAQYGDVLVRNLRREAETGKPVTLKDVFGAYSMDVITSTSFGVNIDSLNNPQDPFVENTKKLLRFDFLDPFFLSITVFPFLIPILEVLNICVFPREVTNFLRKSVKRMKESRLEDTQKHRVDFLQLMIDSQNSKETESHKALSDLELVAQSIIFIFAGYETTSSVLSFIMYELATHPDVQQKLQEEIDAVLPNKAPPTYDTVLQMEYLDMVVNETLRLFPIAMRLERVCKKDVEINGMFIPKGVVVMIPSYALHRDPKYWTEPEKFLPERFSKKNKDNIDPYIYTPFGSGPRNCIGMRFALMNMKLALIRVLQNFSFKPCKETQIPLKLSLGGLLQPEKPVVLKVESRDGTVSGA
Method: as §1

human TREK-1 [4] = biological target: T1, human TREK-1 (Homo sapiens, UniProt O95069); test: TREK-1 Thallium (Tl+) flux assay, Method 1; type: cell-based; conditions: TREK-1 Thallium (Tl+) flux assay; values without footnote *12 are Method 1
T1 construct: expressed in transfected cells
T1 sequence (O95069 1-426): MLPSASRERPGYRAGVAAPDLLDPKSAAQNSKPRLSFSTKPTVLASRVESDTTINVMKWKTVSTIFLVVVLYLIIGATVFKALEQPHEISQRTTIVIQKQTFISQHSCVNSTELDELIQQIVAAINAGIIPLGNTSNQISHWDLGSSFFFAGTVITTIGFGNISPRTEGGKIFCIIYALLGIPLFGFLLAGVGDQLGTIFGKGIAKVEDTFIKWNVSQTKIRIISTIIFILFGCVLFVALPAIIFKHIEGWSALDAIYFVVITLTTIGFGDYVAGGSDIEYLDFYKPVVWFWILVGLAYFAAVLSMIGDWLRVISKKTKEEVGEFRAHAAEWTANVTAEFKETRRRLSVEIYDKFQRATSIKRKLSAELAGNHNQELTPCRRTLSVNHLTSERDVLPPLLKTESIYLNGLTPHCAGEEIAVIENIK
How it was run: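 Readout: Thallos fluorescence ratio, taken 25 s post-thallium relative to the pre-thallium baseline average, then converted to % inhibition. Cells were CHO-K1 stably expressing human TREK-1, dye-loaded and exposed to test compound (vehicle 0.3% DMSO) for 10 min prior to thallium stimulation.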

human TREK-1 [5] = biological target: T1, human TREK-1; test: TREK-1 Manual Patch Clamp (hMPC) assay; type: cell-based; conditions: CHO-K1 cells stably expressing human TREK-1; whole-cell current at 0 mV
Method: The term “patch clamp technique” herein refers to the “gold standard” technique for evaluating TREK channel pharmacology. The detail method is described below.
CHO-K1 cells stably expressing human TREK-1 or HEK293 cells stably expressing human TREK-2 are plated on glass coverslips, and voltage clamped in the whole-cell configuration of the patch clamp technique. Cells were voltage clamped at a holding potential of −80 mV and the stepped to 0 mV for 500 msec. The voltage was subsequently ramped from −120 mV to +80 mV over a 500 msec duration. This step-ramp protocol was repeated every 10 sec. The bathing solution contained the following: 135 mM NaCl, 5 mM KCl, 2 mM CaCl2, 1 mM MgCl2, 5 mM D-Glucose, 10 mM HEPES, 10 mM sucrose (adjusted to pH 7.4 with NaOH, 300 mosmol/kg H2O). The pipette solution contained the following: 135 mM KCl, 2 mM MgCl2, 1 mM EGTA, 10 mM HEPES, 2 mM Na2ATP (adjusted to pH 7.35 with KOH, 285 mosmol/kg H2O). Test compounds were dissolved into the bathing solution. Experiments on TREK-2 were terminated with the addition of the control compound (tert-butyl (3-((4-(benzyloxy)-2-methylphenyl)carbamoyl)-4-chlorophenyl)carbamate) so that maximal inhibition could be determined. The effects of test compound on the currents were calculated at 0 mV using the following equations:
For CHO cells expressing TREK-1 channel: % inhibition=(1-post current/pre current)×100
The compounds shown in Table 2 were prepared in an analogous manner with the appropriate starting materials, and evaluated in our TREK-1 Manual Patch Clamp (hMPC) assay.

CYP1A2 = biological target: T2, CYP1A2 (Homo sapiens, UniProt P05177); test: P450 inhibition 1A2; type: in vitro ADME
T2 sequence (P05177 1-516): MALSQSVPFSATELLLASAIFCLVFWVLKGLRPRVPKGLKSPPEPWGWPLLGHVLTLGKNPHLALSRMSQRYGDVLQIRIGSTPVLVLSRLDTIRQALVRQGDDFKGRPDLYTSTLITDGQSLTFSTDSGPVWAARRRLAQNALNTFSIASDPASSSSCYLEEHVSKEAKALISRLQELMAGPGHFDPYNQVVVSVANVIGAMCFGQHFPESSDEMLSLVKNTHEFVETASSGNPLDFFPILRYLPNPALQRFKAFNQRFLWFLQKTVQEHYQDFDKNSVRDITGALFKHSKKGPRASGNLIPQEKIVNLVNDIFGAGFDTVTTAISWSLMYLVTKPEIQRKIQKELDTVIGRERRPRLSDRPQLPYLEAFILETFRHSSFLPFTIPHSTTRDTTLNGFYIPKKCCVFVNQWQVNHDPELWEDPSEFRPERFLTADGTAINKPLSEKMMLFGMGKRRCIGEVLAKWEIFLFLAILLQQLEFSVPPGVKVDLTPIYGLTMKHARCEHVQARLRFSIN
Method: as §1

plasma protein = test: Mouse plasma protein binding (PPB); type: in vitro ADME
Method: as §1

CLint scaled [1]: 54 mL/min/kg | Mouse BHB (% bound) [2]: 99.7 % bound | IC50 (CYP2D6): 4.5 µM | CLint scaled [3]: 103 mL/min/kg | IC50 (CYP3A4): > 30 µM | IC50 (human TREK-1 [4]): 0.13 µM | IC50 (human TREK-1 [5]): 0.06 µM | IC50 (CYP1A2): 8.6 µM | Mouse PPB (% bound) (plasma protein): 99.2 % bound
SMILES: CC(=O)N[C@H]1CC[C@@H](n2ncc(Cl)c2C(=O)Nc2ncc(C#Cc3ccccc3)cc2C)CC1 [Compound 12, 1-(cis-4-acetamidocyclohexyl)-4-chloro-N-(3-methyl-5-(phenylethynyl)pyridin-2-yl)-1H-pyrazole-5-carboxamide]
